For experiment [1], the system named is CHO cells expressing TRU-016. Briefly: Culturing CHO host cells with carbohydrate modifier: cell growth and viability. The experiment is classed as cell-based, Chinese hamster. Particulars: castanospermine up to 1000 μM, all time periods up to 144 hours. The procedure: For shake flask runs, log phase host cells were seeded in shake flasks at 100,000 cells/ml with carbohydrate modifier at the concentration to be tested, and optionally with methotrexate (MTX) @ 50 nM
Cells were seeded at 3×10E6/mL in 1350 mL of Ex-Cell 302 culture media (SATC Biosciences; with added non-essential amino acids, pyrucate, L-glutamine, pen/strep, HT Supplement and insulin, all from Invitrogen) at t=0 and brought to 5 L total volume at T>=72 hours. The cells were incubated at 37° C. and 5% carbon dioxide and monitored for growth and viability daily starting at day 6-7. Supernatants were typically harvested at day 10-12 when cell viability dropped below 60%.
Na-Azide was added to 0.02%, cells were removed by centrifugation and supernatant was filter sterilized through a 0.22 uM filter. Some assays described in other examples herein were performed on the supernatants as indicated, while other assays were performed on material that underwent further protein A purification. […] Cells were incubated at 37° C. and 5% carbon dioxide and monitored daily for growth and viability. […]

The test system of experiment [2] is CD37-expressing Daudi cancer B-cell line. Description: Antibody Dependent Cellular Cytotoxicity (ADCC) assay, 51Cr release, PBL effector cells. The experiment is classed as cell-based, human. As to conditions: TRU-016 treated with CS over a range of 100 μM-800 μM final concentration. The procedure: TRU-016 produced as described in Example 8 is incubated with the CD37-expressing Daudi cancer B-cell line in conjunction with primary human peripheral blood lymphocytes (PBL's) effector cells to assess ADCC activity.
Daudi target cells (5×10̂6) are added to a 15 ml conical tube and then centrifuged at 250×g for 5 minutes at 20° C. and the supernatant removed. The cell pellet is resuspended by the addition of 0.3 mCi Chromium-51 (^51Cr, GE Healthcare, CJ51). The cells are incubated for 75 minutes at 37° C. with 5% CO2, allowing the cells to incorporate the radioactive isotope. The cells are then washed three times to remove any unincorporated ^51Cr. This is done by adding 10 mL of complete media—IMDM (Gibco) with 10% FBS (Gibco)—to the tube, centrifuging at 250×g for 5 minutes at 20° C. followed by removal of supernatant. The final resuspension is in 11.5 mL of complete media. TRU-016 is diluted in complete media, at concentrations that are able to generate maximal to background levels of cell lysis (500 ng/mL-0.005 ng/mL). These titrations are plated out, 50 μL/well, in a round bottom 96 well plate. The ^51Cr labeled target cells are added to the dose titrations of TRU-016 at 50 μL/well and the control wells (control media without TRU-016). PBL's are isolated from fresh heparinized whole blood by density gradient centrifugation using Lymphocyte Separation Media as per protocol (LSM, MP Biomedical, 50494/36427). […] The assay is incubated for 4.5-5 hours at 37° C., 5% CO2. The effector cells lyse the target cells relative to the TRU-016 concentration, releasing a proportional amount of ^51Cr into the assay supernatant. Following the incubation the plate is centrifuged at 250×g for 3 minutes at 20° C. A 25 μL volume of cell-free supernatant is removed from all wells to a scintillation plate (Perkin Elmer 6005185) and dried overnight. The amount of ^51Cr isotope in each well of the scintillation plate is measured using a Topcount plate reader (Perkin Elmer, C9904V0). The data are expressed as percent of specific release. Specific release is calculated as:
(Sample value−Spontaneous value)/(Maximum value−Spontaneous value)*100% • Spontaneous=amount of ^51Cr released from target cell only • Maximum release=amount of ^51Cr released from targets treated with detergent lysing agent • Background Control=amount of ^51Cr released from target cells+effector cells (No TRU-016)
A dose response is generated and fit to a 4-parameter logistic curve using SoftMax Pro software (Molecular Devices, ver 5.0.1). Titrations of TRU-016 are utilized to create dose response curves of test and reference material for comparison. The EC50 values for the treated articles are compared to the untreated control (no CS) to determine the percent increase in ADCC activity.

`O[C@H]1[C@H](O)[C@@H](O)CN2CC[C@H](O)[C@H]12` [castanospermine]: in experiment [1], the cell counts entry is on record as “did not affect” and the percent cell viability result is “did not affect”.
As to “TRU-016: recombinant single chain protein (SMIP) that binds CD37; G28-1 binding domain, modified hinge, human IgG1 CH2 and CH3; SEQ ID NO: 2”, in experiment [2], the “ADCC activity relative to untreated TRU-016” value was “significantly increased”.

The record behind these values is patent US20100150948A1, “MATERIALS AND METHODS FOR IMPROVED IMMUNOGLYCOPROTEINS” (TRUBION PHARMACEUTICALS, INC., priority 2006, published 2010).
